# According to patent publication EP4631931A1, “HDAC INHIBITOR AND USE THEREOF” (Wigen Biomedicine Technology (Shanghai) Co., Ltd., priority 2022, dated 2024):
# How the values were obtained:
# [1] = test system: Jurkat cell; assay: Inhibition of Jurkat cell proliferation (CTG, intracellular ATP); format: cell-based; settings: Homo sapiens, 72 h, compared to DMSO group, read-out: Inhibitory activity against Jurkat cell proliferation (IC50)
# Protocol: Jurkat or 293T cells were seeded into a 96-well plate at 3000 cells/well. After overnight adherence culture, the serially diluted compound in DMSO was added. After 72 h, the intracellular ATP level was determined by CTG. The IC50 for the inhibition of cell proliferation by the compounds was calculated compared to the DMSO group. Table 8. Inhibitory activity of compounds of the present disclosure against Jurkat/293T cell proliferation (IC50, µM)
# [2] = test system: Mouse colon cancer CT-26 cells; assay: In vivo efficacy in CT-26 model; parameters: species or system BALB/c mice; settings: small molecules 15mg/kg PO QD, PD-1 1mg/kg IV QW, BDO 2mg/kg IP QW, 21 days; for TGI(%): 6 mice per group
# Protocol: (§1) Female BALB/c mice (aged 6 weeks, 18-22 g) were provided by Vital River Laboratory Animal Technology Co., Ltd. (China) and used one week after quarantine and acclimation. All animals were kept in a room at 23±2 °C with a relative humidity of 50±5%, artificial lighting was provided from 08:00 to 20:00 every day, and the air was exchanged 13-18 times per hour. Mouse colon cancer CT-26 cells were cultured conventionally in 1640 medium containing 10% fetal bovine serum in an incubator at 37 °C with 5% CO2. After being subcultured, the cells were collected when they reached the desired amount. The BALB/c mice were subcutaneously injected with 2 × 10^5 CT-26 cells on the right side to form tumors. After the tumors grew to about 100 mm^3, the animals were randomly grouped for administration. Tumor volumes were measured with a caliper on day 3, day 7, day 10, day 14, day 17, and day 21 after the administration. […] The toxicity of the compounds was evaluated according to the body weight and state of the mice.
# Table 16. In vivo efficacy of some of the compounds of the present disclosure in CT-26 model
# [3] = Stability in liver microsomes; format: in vitro ADME; settings: 1 µM compound, NADPH, 37 °C
# Protocol: After the 1 µM compound was incubated with 0.5 mg/mL of human or mouse liver microsomes and an NADPH regeneration system at 37 °C for different times, respectively, LC-MS-MS was used to analyze the remaining amount of the compound and calculate T1/2. Table 12. Evaluation results of stability of compounds of the present disclosure in human and mouse liver microsomes
# [4] = Pharmacokinetic experiment in mice; format: in vivo, CD-1 female mice; settings: female, CD-1, mouse, plasma; for Vd: read-out: Vdss
# Protocol: CD-1 female mice aged 7 to 10 weeks were intravenously administered and orally administered at doses of 1 mg/kg and 10 mg/kg, respectively. The mice were fasted for at least 12 h before the administration and given food 4 h after the administration, and they were given ad libitum access to water during the experiment.
# On the day of the experiment, animals in the intravenous group were given the corresponding compound by single injection via the tail vein at an administration volume of 10 mL/kg; and animals in the oral group were given the corresponding compound by single intragastric injection at an administration volume of 10 mL/kg. The animals were weighed before administration, and the administration volume was calculated according to the body weight. The sample collection time points were 0.083 h, 0.167 h, 0.5 h, 1 h, 2 h, 4 h, 8 h, and 24 h. About 200 µL of whole blood was collected through the orbital venous plexus at each time point and used to prepare plasma for concentration determination by high-performance liquid chromatography-tandem mass spectrometry (LC-MS/MS). The plasma concentrations were processed using a non-compartmental model of Winnolin pharmacokinetic software, and the pharmacokinetic parameters were calculated using a linear-log trapezoidal method. Table 13. Results of in vivo pharmacokinetic evaluation of compounds of the present disclosure
# [5] = test system: OVCAR 3 cells; assay: NK cell-mediated tumor cell killing (NK92 cells, GFP count); format: cell-based; settings: Homo sapiens, 72 h compound, 1-4 h co-culture, compared to DMSO group, read-out: EC50 in promoting the NK92 cell-mediated OVCAR 3 cell death
# Protocol: OVCAR 3 cells […] expressing GFP were seeded into a 96-well plate at 4000 cells/well. After overnight adherence culture, the serially diluted compounds were added, and the plate was incubated for another 72 h. After the two types of cells were mixed and cultured for another 1-4 h, NK92 cells were removed by washing with PBS, and adherent GFP-positive tumor cells were counted. The EC50 of the compounds in promoting the NK92 cell-mediated OVCAR 3 cell death was calculated compared to the DMSO group. Table 11. NK cell-mediated tumor cell killing by compounds of the present disclosure
# [6] = test system: Mouse colon cancer MC38 cells; assay: In vivo efficacy in MC-38 model; parameters: species or system C57BL6N mice; settings: small molecules 15mg/kg PO QD, PD-1 1mg/kg IV QW, BDO 2mg/kg IP QW, 21 days; for TGI(%): 6 mice per group
# Protocol: as §1, with “C57BL6N” for “BALB/c”, “MC38” for “CT-26”, “10^6 MC38” for “10^5 CT-26”
# Table 15. In vivo efficacy of some of the compounds of the present disclosure in MC-38 model
# [7] = test system: HeLa cells; assay: Intracellular acetyl lysine / H3K 27 acetyl lysine level by ELISA; format: cell-based; settings: 24 h of treatment
# Protocol: HeLa cells were seeded into a 96-well plate at 20000 cells/well. After overnight adherence culture, the serially diluted compound was added. After 24 h of treatment, intracellular levels of acetyl lysine and H3K 27 acetyl lysine were quantified by ELISA. Table 9. Effect of compound of the present disclosure on levels of acetyl lysine and H3K 27 acetyl lysine
# [8] = Human liver microsomes 0.5 mg/mL
# [9] = Mouse liver microsomes 0.5 mg/mL
# [10] = Injection (1 mg/kg), intravenous
Structure (SMILES),IC50 [1] [nM],Change in body weight [2],TGI(%) [2] [%],"CLint scaled at 1 µM [3, 8] [mL/min/kg]","Clliver [3, 8] [mL/min/kg]","half-life at 1 µM [3, 8] [h]","CLint scaled at 1 µM [3, 9] [mL/min/kg]","Clliver [3, 9] [mL/min/kg]","half-life at 1 µM [3, 9] [h]","AUC(0-t) [4, 10] [ng·h/mL]","clearance [4, 10] [mL/min/kg]","half-life [4, 10] [h]","Vd [4, 10] [L/kg]",AUC(0-t) ([4]; Oral administration (10 mg/kg)) [ng·h/mL],Cmax ([4]; Oral administration (10 mg/kg)) [ng/mL],Tmax ([4]; Oral administration (10 mg/kg)) [h],bioavailability ([4]; Oral administration (10 mg/kg)) [%],half-life ([4]; Oral administration (10 mg/kg)) [h],EC50 [5] [nM],Change in body weight [6],other results
"Nc1cc(F)ccc1NC(=O)c1ccc(CNC(=O)/C=C/c2cccnc2)cc1 [Chidamide, reference compound]",1620,+21.1%,8.9,20.9,10.41,1.38,222,64.04,0.41,539,33.9,2.03,1.55,2490,3750,0.17,46.1,3.51,161,+21.1%,TGI(%) [6]: 8.9%; Acetyl lysine Maximum (%) [7]: 420%; Acetyl lysine Minimum effective concentration [7]: 80 nM; H3K 27 Acetyl lysine Maximum (%) [7]: 380%; H3K 27 Acetyl lysine Minimum effective concentration [7]: 80 nM
"[2H]c1cc(C(=O)Nc2ccc(F)cc2N)ccc1CNC(=O)/C=C/c1cccnc1 [Compound 5, (E)-N-(2-amino-4-fluorophenyl)-4-((3-(pyridin-3-yl)acrylamido)methyl)-3-d benzamide]",590,+24.2%,12.2,7.95,5.74,3.64,231,64.79,0.393,453,36.8,1.28,1.13,2360,1330,0.17,52,3.13,33.7,+24.2%,TGI(%) [6]: 12.2%; Acetyl lysine Maximum (%) [7]: 350%; Acetyl lysine Minimum effective concentration [7]: 16 nM; H3K 27 Acetyl lysine Maximum (%) [7]: 420%; H3K 27 Acetyl lysine Minimum effective concentration [7]: 80 nM
